Assay results reported in patent US20100190719A1, “PEPTIDES AS ANTIMICROBIAL AGENTS TOWARDS CAMPYLOBACTER SPP” (priority 2007, published 2010).

Experiments:
C. jejuni strain C338 [1] = test: morphology of C. jejuni after incubation with phage peptides (Gram stain); format: cell-based, Campylobacter jejuni; conditions: normal morphology is spiral-shaped
Procedure: The morphology has changed to thread-shaped. • B. Strain C338 incubated with unselected phage library showing the normal spiral-shaped morphology • C.
(§1) The number of viable bacteria in the 96 well plates was determined by performing colony counts on the diluted inoculum and plating onto blood agar plates. Colony counts on blood agar plates were also used to determine the initial inoculum of bacteria used in the assay. A Gram Stain Kit was used to check the morphology of C. jejuni after incubation with the phage peptides.

C. jejuni strain C338 [2] = test: microdilution susceptibility test, inhibition of growth of C. jejuni in vitro; format: cell-based, Campylobacter jejuni; conditions: for % inhibition of growth: C. jejuni strain C338, phage-displayed peptide
Procedure: Representative affinity-selected phage peptides were tested for their ability to inhibit the growth of C. jejuni strains in vitro. Each phage clone was amplified by E. coli infection and twice purified by PEG precipitation and resuspended in TBS buffer (pH 7.5). Phage concentrations were calculated as […] using the ultraviolet (UV) absorbance measurements on a spectrophotometer (Smith & Scott, 1993). […] In brief: each of the C. jejuni strains was resuspended to an OD595 of 0.2 in Nutrient Broth and then diluted to 10^4-10^5 CFU/mL in Nutrient Broth containing Campylobacter growth supplement. […] A microaerophilic environment was provided by GasPak E2 Campy Pouches (BD Biosciences). After 24-48 h at 37° C. without shaking, the optical densities of the bacterial cultures were measured at OD595 nm in a plate reader (Victor2, Perkin Elmer).
as §1

VPESIHKASLVCYRF (f88-4/15-mer peptide phage-display library) [BP3/5]
morphology of C. jejuni after incubation with phage-displayed peptide (C. jejuni strain C338 [1]): coccoid shaped

FLIDSPLASIGPTSM (f88-4/15-mer peptide phage-display library) [CP3/3]
% inhibition of growth (C. jejuni strain C338 [2]): 99.3%

TCNLSDYTLPRARVL (f88-4/15-mer peptide phage-display library) [BT3/4]
% inhibition of growth (C. jejuni strain C338 [2]): 60%
inhibition of growth of C. jejuni in vitro (in words) (C. jejuni strain C338 [2]; bacterial concentration of 1×10^4 CFU/mL): inhibited the growth

GRFLIRVTSSPLGPD (f88-4/15-mer peptide phage-display library) [CP3/1]
% inhibition of growth (C. jejuni strain C338 [2]): 96.7%
inhibition of growth of C. jejuni (C. jejuni strain C338 [2]; initial bacterial inoculum 2.8×10^4 CFU/mL): 97%
inhibition of growth of C. jejuni (C. jejuni strain C338 [2]; initial bacterial inoculum 2.8×10^4 CFU/mL as printed (second value for CP3/1)): 89%
morphology of C. jejuni after incubation with phage-displayed peptide (C. jejuni strain C338 [1]): thread-shaped

TGSGLYLHQMVYLYQ (f88-4/15-mer peptide phage-display library) [CP3/2]
% inhibition of growth (C. jejuni strain C338 [2]): 92%
inhibition of growth of C. jejuni (C. jejuni strain C338 [2]; bacterial inoculum 1.6×10^5 CFU/mL): 87%
